Experimental data: PubChem BioAssay (NCI)
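Briefly, cells in 96-well plates were exposed to five compound concentrations for 48 h, and endpoints were estimated by linear interpolation. TGI marks complete inhibition of growth.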

Legend:
Assay in all cases: NCI tumour cell line growth inhibition, 48 h
[1] = system: KM12 colon
[2] = system: IGROV1 ovarian
[3] = system: SF-539 CNS
[4] = system: RPMI-8226 leukemia
[5] = system: OVCAR-8 ovarian
[6] = system: HOP-62 NSCLC
[7] = system: HS 578T breast
[8] = system: SK-MEL-5 melanoma
[9] = system: HT29 colon
[10] = system: NCI-H522 lung
[11] = system: UACC-62 melanoma
[12] = system: 786-0 renal
[13] = system: DU-145 prostate
[14] = system: SN12C renal
[15] = system: MDA-N
[16] = system: COLO 205 colon
[17] = system: A498 renal
[18] = system: OVCAR-3 ovarian
[19] = system: CAKI-1 renal
[20] = system: SNB-75 CNS
[21] = system: MALME-3M melanoma
[22] = system: UACC-257 melanoma
[23] = system: BT-549 breast
[24] = system: SF-295 CNS
[25] = system: TK-10 renal
[26] = system: SK-MEL-2 melanoma
[27] = system: MDA-MB-435
[28] = system: HOP-92 NSCLC
[29] = system: MCF7 breast
[30] = system: NCI-H226 lung
[31] = system: RXF 393 renal
[32] = system: MDA-MB-231 breast
[33] = system: T-47D breast
[34] = system: LOX IMVI melanoma
[35] = system: SNB-19 CNS
[36] = system: CCRF-CEM leukemia
[37] = system: U251 CNS
[38] = system: ACHN renal
[39] = system: A549 NSCLC
[40] = system: PC-3 prostate
[41] = system: UO-31 renal
[42] = system: EKVX NSCLC
[43] = system: NCI-H460 lung
[44] = system: M14 melanoma
[45] = system: OVCAR-4 ovarian
[46] = system: MOLT-4 leukemia
[47] = system: SF-268 CNS
[48] = system: OVCAR-5 ovarian
[49] = system: HL-60(TB) leukemia
[50] = system: SK-OV-3 ovarian
[51] = system: NCI/ADR-RES ovarian
[52] = system: HCT-116 colon
[53] = system: SW-620 colon
[54] = system: HCT-15 colon
[55] = system: SK-MEL-28 melanoma
[56] = system: HCC-2998 colon
[57] = system: NCI-H23 lung
[58] = system: K-562 leukemia

OC1OC(c2ccc[nH]2)C(F)(F)C(F)(F)C1(F)F (configuration not stated)
TGI [1]: > 100 µM | TGI [2]: > 100 µM | TGI [3]: > 100 µM | TGI [4]: > 100 µM | TGI [5]: > 100 µM | TGI [6]: > 100 µM | TGI [7]: > 100 µM | TGI [8]: > 100 µM | TGI [9]: > 100 µM | TGI [10]: > 100 µM | TGI [11]: > 100 µM | TGI [12]: > 100 µM | TGI [13]: > 100 µM | TGI [14]: > 100 µM | TGI [15]: > 100 µM | TGI [16]: > 100 µM | TGI [17]: > 100 µM | TGI [18]: > 100 µM | TGI [19]: > 100 µM | TGI [20]: > 100 µM | TGI [21]: > 100 µM | TGI [22]: > 100 µM | TGI [23]: > 100 µM | TGI [24]: > 100 µM | TGI [25]: > 100 µM | TGI [26]: > 100 µM | TGI [27]: > 100 µM | TGI [28]: > 100 µM | TGI [29]: > 100 µM | TGI [30]: > 100 µM | TGI [31]: > 100 µM | TGI [32]: > 100 µM | TGI [33]: > 100 µM | TGI [34]: > 100 µM | TGI [35]: > 100 µM | TGI [36]: > 100 µM | TGI [37]: > 100 µM | TGI [38]: > 100 µM | TGI [39]: > 100 µM | TGI [40]: > 100 µM | TGI [41]: > 100 µM | TGI [42]: > 100 µM | TGI [43]: > 100 µM | TGI [44]: > 100 µM | TGI [45]: > 100 µM | TGI [46]: > 100 µM | TGI [47]: > 100 µM | TGI [48]: > 100 µM | TGI [49]: > 100 µM | TGI [50]: > 100 µM | TGI [51]: > 100 µM | TGI [52]: > 100 µM | TGI [53]: > 100 µM | TGI [54]: > 100 µM | TGI [55]: > 100 µM

O=C(O)C(Cc1ccccc1)N1C(=O)c2ccccc2C1=O (configuration not stated)
TGI [1]: > 100 µM | TGI [2]: > 100 µM | TGI [3]: > 100 µM | TGI [4]: > 100 µM | TGI [5]: > 100 µM | TGI [6]: > 100 µM | TGI [7]: > 100 µM | TGI [8]: > 100 µM | TGI [9]: > 100 µM | TGI [10]: > 100 µM | TGI [11]: > 100 µM | TGI [12]: > 100 µM | TGI [13]: > 100 µM | TGI [14]: > 100 µM | TGI [15]: > 100 µM | TGI [16]: > 100 µM | TGI [17]: > 100 µM | TGI [18]: > 100 µM | TGI [19]: > 100 µM | TGI [21]: > 100 µM | TGI [22]: > 100 µM | TGI [23]: > 100 µM | TGI [24]: > 100 µM | TGI [25]: > 100 µM | TGI [26]: > 100 µM | TGI [27]: > 100 µM | TGI [28]: > 100 µM | TGI [29]: > 100 µM | TGI [30]: > 100 µM | TGI [31]: > 100 µM | TGI [32]: > 100 µM | TGI [56]: > 100 µM | TGI [33]: > 100 µM | TGI [34]: > 100 µM | TGI [35]: > 100 µM | TGI [36]: 65.1 µM | TGI [37]: > 100 µM | TGI [38]: > 100 µM | TGI [39]: > 100 µM | TGI [40]: > 100 µM | TGI [41]: > 100 µM | TGI [42]: > 100 µM | TGI [43]: > 100 µM | TGI [44]: > 100 µM | TGI [45]: > 100 µM | TGI [46]: > 100 µM | TGI [47]: > 100 µM | TGI [48]: > 100 µM | TGI [57]: > 100 µM | TGI [49]: 10.8 µM | TGI [50]: > 100 µM | TGI [51]: > 100 µM | TGI [52]: > 100 µM | TGI [58]: > 100 µM | TGI [53]: 84.9 µM | TGI [54]: > 100 µM | TGI [55]: 30.4 µM
